Measurements taken from article PMC11671526, “β-caryophyllene sensitizes hepatocellular carcinoma cells to chemotherapeutics and inhibits cell malignancy through targeting MAPK signaling pathway” (Frontiers in Pharmacology, 2024).

Test system: HepG2 cells
Test: RNA-seq transcriptome analysis of differentially expressed genes
Type: cell-based, human
Details: BCP vs control HepG2
Protocol: The quality and concentration of RNA were examined by MOPS RNA electrophoresis and Eppendorf BioSpectrometer. The transcriptome analysis was performed by BGI-Wuhan China. The RNA-seq dataset of this study is accessible in the Gene Expression Omnibus (GEO) with an access number of GSE276099. The sequence library for each sample was prepared using the BGISEQ-500 platform with a 50-bp single-end (SE50) format. […]2.2.1) was used to align the clean reads to the reference genome and alignment of the clean reads to the reference genes was carried out using Bowtie2 (v2.4.5) ([Langmead and Salzberg, 2012]; [Kim et al., 2015]). Gene expression levels were calculated by RSEM (v1.3.1) ([Li and Dewey, 2011]). Analysis of differential gene expression was performed using edgeR in the Bioconductor software package ([Robinson et al., 2010]). Using a standard protocol, the RNA samples were also examined by reverse transcription and quantitative polymerase chain reaction (RT-qPCR). In brief, for reverse transcription, total RNA (1 μg) and gDNA wiper Mix were incubated at 42°C for 2 min. The samples were immediately incubated with a master mix containing 10 pmol/μL of poly (dT) primers at 37°C for 15 min and 85°C for 5 s. To detect the expression of specific genes by qPCR analysis, gene-specific primers (shown in Supplementary Table S1) were mixed with the ChamQ Universal SYBER qPCR Master Mix and the reaction was conducted using the Roche Lightcycler 480. The GAPDH value was used to normalize the results of each gene. The RNA-seq data of BCP-treated HepG2 cells were screened for DEGs. Gene symbols were turned into Enterz ID using the org.Hs.eg.db Bio-conductor R package. The cluster profiler (v4.6.2) package was used to perform the Kyoto Encyclopedia of Genes and Genomes (KEGG) and Gene Ontology (GO) enrichment analyses ([Wu et al., 2021]). Following the Transcript per million (TPM) data of the dataset, the line chart, and heatmap were plotted using ggplot2 and pheatmap R packages, respectively.

Compound: C=C1CC/C=C(\C)CC[C@@H]2[C@@H]1CC2(C)C [BCP, β-caryophyllene]
- change RAPGEF3 (gene RAPGEF3, DEG direction): Down
- logFC RARRES2 (gene RARRES2, RNA-seq): -0.9419
- change RARRES2 (gene RARRES2, DEG direction): Down
- logFC RASSF5 (gene RASSF5, RNA-seq): -1.261
- change RASSF5 (gene RASSF5, DEG direction): Down
- logFC RETREG1 (gene RETREG1, RNA-seq): 0.6811
- change RETREG1 (gene RETREG1, DEG direction): Up
- logFC RHOB (gene RHOB, RNA-seq): 0.8378
- change RHOB (gene RHOB, DEG direction): Up
- logFC RHOBTB1 (gene RHOBTB1, RNA-seq): 0.6316
- change RHOBTB1 (gene RHOBTB1, DEG direction): Up
- logFC RILPL2 (gene RILPL2, RNA-seq): -0.6633
- change RILPL2 (gene RILPL2, DEG direction): Down
- logFC RNASE4 (gene RNASE4, RNA-seq): -1.067
- change RNASE4 (gene RNASE4, DEG direction): Down
- logFC RNF182 (gene RNF182, RNA-seq): 0.812
- change RNF182 (gene RNF182, DEG direction): Up
- logFC RNF208 (gene RNF208, RNA-seq): -0.8526
- change RNF208 (gene RNF208, DEG direction): Down
- logFC RSPO3 (gene RSPO3, RNA-seq): 1.091
- change RSPO3 (gene RSPO3, DEG direction): Up
- logFC RUNDC3B (gene RUNDC3B, RNA-seq): -1.157
- change RUNDC3B (gene RUNDC3B, DEG direction): Down
- logFC S100A3 (gene S100A3, RNA-seq): -0.7971
- change S100A3 (gene S100A3, DEG direction): Down
- logFC S100A4 (gene S100A4, RNA-seq): -0.5965
- change S100A4 (gene S100A4, DEG direction): Down
- logFC SCIN (gene SCIN, RNA-seq): -0.6372
- change SCIN (gene SCIN, DEG direction): Down
- logFC SDCCAG8 (gene SDCCAG8, RNA-seq): 0.7756
- change SDCCAG8 (gene SDCCAG8, DEG direction): Up
- logFC SEL1L (gene SEL1L, RNA-seq): 0.5873
- change SEL1L (gene SEL1L, DEG direction): Up
- logFC SELENOP (gene SELENOP, RNA-seq): 0.7184
- change SELENOP (gene SELENOP, DEG direction): Up
- logFC SEMA5A (gene SEMA5A, RNA-seq): 1.3518
- change SEMA5A (gene SEMA5A, DEG direction): Up
- logFC SIK2 (gene SIK2, RNA-seq): 0.6807
- change SIK2 (gene SIK2, DEG direction): Up
- logFC SLC5A3 (gene SLC5A3, RNA-seq): -0.7077
- change SLC5A3 (gene SLC5A3, DEG direction): Down
- logFC SLC9B2 (gene SLC9B2, RNA-seq): -0.6372
- change SLC9B2 (gene SLC9B2, DEG direction): Down
- logFC SLC16A6 (gene SLC16A6, RNA-seq): 1.033
- change SLC16A6 (gene SLC16A6, DEG direction): Up
- logFC SLC52A3 (gene SLC52A3, RNA-seq): -2.872
- change SLC52A3 (gene SLC52A3, DEG direction): Down
- logFC SLCO4A1 (gene SLCO4A1, RNA-seq): -0.7226
- change SLCO4A1 (gene SLCO4A1, DEG direction): Down
- logFC SLFN5 (gene SLFN5, RNA-seq): 0.8058
- change SLFN5 (gene SLFN5, DEG direction): Up
- logFC SLPI (gene SLPI, RNA-seq): -0.5978
- change SLPI (gene SLPI, DEG direction): Down
- logFC SNED1 (gene SNED1, RNA-seq): 0.7039
- change SNED1 (gene SNED1, DEG direction): Up
- logFC SNTB1 (gene SNTB1, RNA-seq): 0.7574
- change SNTB1 (gene SNTB1, DEG direction): Up
- logFC SORBS2 (gene SORBS2, RNA-seq): 0.9049
- change SORBS2 (gene SORBS2, DEG direction): Up
- logFC SPAG16 (gene SPAG16, RNA-seq): 0.7042
- change SPAG16 (gene SPAG16, DEG direction): Up
- logFC SPRY4 (gene SPRY4, RNA-seq): -0.9938
- change SPRY4 (gene SPRY4, DEG direction): Down
- logFC ST6GALNAC6 (gene ST6GALNAC6, RNA-seq): -0.6732
- change ST6GALNAC6 (gene ST6GALNAC6, DEG direction): Down
- logFC STARD10 (gene STARD10, RNA-seq): -0.7468
- change STARD10 (gene STARD10, DEG direction): Down
- logFC SULT1A4 (gene SULT1A4, RNA-seq): -0.8677
- change SULT1A4 (gene SULT1A4, DEG direction): Down
- logFC SV2B (gene SV2B, RNA-seq): 1.269
- change SV2B (gene SV2B, DEG direction): Up
- logFC SYN3 (gene SYN3, RNA-seq): -1.293
- change SYN3 (gene SYN3, DEG direction): Down
- logFC TAGLN (gene TAGLN, RNA-seq): 1.297
- change TAGLN (gene TAGLN, DEG direction): Up
- logFC TBC1D2 (gene TBC1D2, RNA-seq): 0.6507
- change TBC1D2 (gene TBC1D2, DEG direction): Up
- logFC TBC1D17 (gene TBC1D17, RNA-seq): -0.5911
- change TBC1D17 (gene TBC1D17, DEG direction): Down
- logFC TCIM (gene TCIM, RNA-seq): 0.8634
- change TCIM (gene TCIM, DEG direction): Up
- logFC TCN1 (gene TCN1, RNA-seq): -1.416
- change TCN1 (gene TCN1, DEG direction): Down
- logFC TEK (gene TEK, RNA-seq): -1.317
- change TEK (gene TEK, DEG direction): Down
- logFC TGFB3 (gene TGFB3, RNA-seq): -0.7747
- change TGFB3 (gene TGFB3, DEG direction): Down
- logFC TIMP3 (gene TIMP3, RNA-seq): -1.01
- change TIMP3 (gene TIMP3, DEG direction): Down
- logFC TLR4 (gene TLR4, RNA-seq): -0.8506
- change TLR4 (gene TLR4, DEG direction): Down
- logFC TM4SF1 (gene TM4SF1, RNA-seq): 0.7666
- change TM4SF1 (gene TM4SF1, DEG direction): Up
- logFC TMEM120B (gene TMEM120B, RNA-seq): -0.6536
- change TMEM120B (gene TMEM120B, DEG direction): Down
- logFC TNFSF15 (gene TNFSF15, RNA-seq): -1.596
- change TNFSF15 (gene TNFSF15, DEG direction): Down
- logFC TNXB (gene TNXB, RNA-seq): -0.7488
- change TNXB (gene TNXB, DEG direction): Down
- logFC TPBG (gene TPBG, RNA-seq): -0.9203
- change TPBG (gene TPBG, DEG direction): Down
- logFC TRNP1 (gene TRNP1, RNA-seq): -0.8357
- change TRNP1 (gene TRNP1, DEG direction): Down
- logFC USH1C (gene USH1C, RNA-seq): 0.9916
- change USH1C (gene USH1C, DEG direction): Up
- logFC VAMP1 (gene VAMP1, RNA-seq): -0.8271
- change VAMP1 (gene VAMP1, DEG direction): Down
- logFC VSIR (gene VSIR, RNA-seq): -0.6272
- change VSIR (gene VSIR, DEG direction): Down
- logFC XYLT1 (gene XYLT1, RNA-seq): 1.184
- change XYLT1 (gene XYLT1, DEG direction): Up
- logFC ZBED6CL (gene ZBED6CL, RNA-seq): -0.9925
- change ZBED6CL (gene ZBED6CL, DEG direction): Down
- logFC ZNF365 (gene ZNF365, RNA-seq): -1.468
- change ZNF365 (gene ZNF365, DEG direction): Down
- logFC ZRANB3 (gene ZRANB3, RNA-seq): 1.008
- change ZRANB3 (gene ZRANB3, DEG direction): Up
